Data reported in patent publication US12540131B2 (Merck Sharp & Dohme LLC, priority 2019, dated 2026).

Target: GST tagged truncated human mutant G2019S LRRK2 (Homo sapiens (Human), UniProt Q5S007, G2019S)
Assay: LRRK2 Km ATP LanthaScreen Assay
Assay type: biochemical
Settings: G2019S LRRK2, 134 μM ATP (Km ATP), mean values; for IC50: read-out: LRRK2 pIC50 (converted)
How it was run: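 Enzyme (GST-tagged, truncated) was preincubated with compound for 15 min at RT in 50 mM Tris pH 8.5, 10 mM MgCl2, 0.01% Brij-35, 1 mM EGTA, 2 mM DTT and 0.05 mM orthovanadate. Fluorescein-LRRKtide and 134 μM ATP (Km) were then added for 90 min. EDTA and Tb-anti-pERM antibody stopped the reaction; the TR-FRET 520/495 ratio gave 4-parameter IC50s, reported as mean pIC50.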

Sequence of GST tagged truncated human mutant G2019S LRRK2 (Q5S007 970-2527 G2019S): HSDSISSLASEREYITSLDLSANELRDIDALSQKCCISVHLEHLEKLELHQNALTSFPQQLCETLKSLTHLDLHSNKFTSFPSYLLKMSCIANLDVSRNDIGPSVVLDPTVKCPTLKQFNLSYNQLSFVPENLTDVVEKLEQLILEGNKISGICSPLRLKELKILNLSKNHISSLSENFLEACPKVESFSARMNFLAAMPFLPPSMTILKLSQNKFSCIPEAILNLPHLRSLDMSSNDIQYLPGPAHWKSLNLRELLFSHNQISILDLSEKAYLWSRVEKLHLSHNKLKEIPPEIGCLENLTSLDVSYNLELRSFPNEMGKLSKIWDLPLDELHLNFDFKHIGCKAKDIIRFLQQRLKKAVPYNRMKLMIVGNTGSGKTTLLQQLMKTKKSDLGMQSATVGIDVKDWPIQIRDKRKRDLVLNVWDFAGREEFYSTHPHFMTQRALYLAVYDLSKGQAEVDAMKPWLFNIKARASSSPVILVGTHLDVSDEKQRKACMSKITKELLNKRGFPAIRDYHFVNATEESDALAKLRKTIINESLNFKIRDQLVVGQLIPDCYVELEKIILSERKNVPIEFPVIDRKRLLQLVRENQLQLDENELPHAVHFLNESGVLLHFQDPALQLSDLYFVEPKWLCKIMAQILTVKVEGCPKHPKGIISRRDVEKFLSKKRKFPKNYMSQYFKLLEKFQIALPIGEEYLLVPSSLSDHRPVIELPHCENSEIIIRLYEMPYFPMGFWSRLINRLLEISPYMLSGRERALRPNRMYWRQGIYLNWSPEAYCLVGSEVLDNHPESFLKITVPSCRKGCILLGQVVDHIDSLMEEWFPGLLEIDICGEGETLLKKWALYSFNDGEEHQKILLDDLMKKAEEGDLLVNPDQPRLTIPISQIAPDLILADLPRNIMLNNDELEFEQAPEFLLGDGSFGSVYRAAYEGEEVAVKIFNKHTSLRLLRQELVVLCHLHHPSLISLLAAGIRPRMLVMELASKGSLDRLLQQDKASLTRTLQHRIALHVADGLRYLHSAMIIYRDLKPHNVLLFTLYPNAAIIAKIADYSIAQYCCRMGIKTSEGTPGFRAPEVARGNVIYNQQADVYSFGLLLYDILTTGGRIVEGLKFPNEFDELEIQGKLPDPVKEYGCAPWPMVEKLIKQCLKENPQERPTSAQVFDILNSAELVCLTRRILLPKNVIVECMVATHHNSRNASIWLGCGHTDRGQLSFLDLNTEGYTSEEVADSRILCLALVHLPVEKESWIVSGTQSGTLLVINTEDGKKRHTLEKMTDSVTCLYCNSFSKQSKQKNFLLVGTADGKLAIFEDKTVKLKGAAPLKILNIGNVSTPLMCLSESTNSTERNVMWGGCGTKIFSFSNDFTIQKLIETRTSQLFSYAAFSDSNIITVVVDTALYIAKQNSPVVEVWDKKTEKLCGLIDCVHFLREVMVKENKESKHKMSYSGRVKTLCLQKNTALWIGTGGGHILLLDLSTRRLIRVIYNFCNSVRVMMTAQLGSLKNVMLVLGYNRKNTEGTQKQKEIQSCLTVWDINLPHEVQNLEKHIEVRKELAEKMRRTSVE

Structure (SMILES) | IC50 | LRRK2 pIC50
Clc1cc2cnc(Nc3cnn(C4CC4)c3Cl)nc2cc1C1CCN(C2COC3(CCC3)C2)CC1 (single isomer, unassigned) [Ex-4.114, (R) or (S) 7-(1-(5-oxaspiro[3.4]octan-7-yl)piperidin-4-yl)-6-chloro-N-(5-chloro-1-cyclopropyl-1H-pyrazol-4-yl)quinazolin-2-amine] | 10 nM | 
Clc1cc2cnc(Nc3cnn(C4CC4)c3Cl)nc2cc1C1CCN(C2COC3(CCC3)C2)CC1 (single isomer, unassigned) [Ex-4.115, (R) or (S) 7-(1-(5-oxaspiro[3.4]octan-7-yl)piperidin-4-yl)-6-chloro-N-(5-chloro-1-cyclopropyl-1H-pyrazol-4-yl)quinazolin-2-amine] | 0.851 nM | 
CC1(C)CC(N2CCC(c3cc4nc(Nc5cnn(C6CC6)c5Cl)ncc4cc3Cl)CC2)CO1 (single isomer, unassigned) [Ex-4.116, (R) or (S) 6-chloro-N-(5-chloro-1-cyclopropyl-1H-pyrazol-4-yl)-7-(1-(5,5-dimethyltetrahydrofuran-3-yl)piperidin-4-yl)quinazolin-2-amine] | 4.47 nM | 
CC1(C)CC(N2CCC(c3cc4nc(Nc5cnn(C6CC6)c5Cl)ncc4cc3Cl)CC2)CO1 (single isomer, unassigned) [Ex-4.117, (R) or (S) 6-chloro-N-(5-chloro-1-cyclopropyl-1H-pyrazol-4-yl)-7-(1-(5,5-dimethyltetrahydrofuran-3-yl)piperidin-4-yl)quinazolin-2-amine] | < 0.631 nM | 
Cc1nsc(Nc2ncc3cc(Cl)c([C@@H]4CCN(C5COC[C@@H]5O)C[C@H]4F)cc3n2)c1Cl (single isomer, unassigned) [Ex-4.120, (3S,4S)(3S,4S) or (3S,4S)(3R,4R) or (3R,4R)(3S,4S) or (3R,4R)(3R,4R) 4-{6-chloro-2-[(4-chloro-3-methyl-1,2-thiazol-5-yl)amino]quinazolin-7-yl}-3-fluoropiperidin-1-yl]oxolan-3-ol] |  | 7.65
Cc1nsc(Nc2ncc3cc(Cl)c([C@@H]4CCN(C5COC[C@H]5O)C[C@H]4F)cc3n2)c1Cl (single isomer, unassigned) [Ex-4.121, (3S,4S)(3S,4S) or (3S,4S)(3R,4R) or (3R,4R)(3S,4S) or (3R,4R)(3R,4R) 4-{6-chloro-2-[(4-chloro-3-methyl-1,2-thiazol-5-yl)amino]quinazolin-7-yl}-3-fluoropiperidin-1-yl]oxolan-3-ol] |  | 8.92
O[C@H]1COCC1N1CC[C@@H](c2cc3nc(Nc4cnn(C5CC5)c4Cl)ncc3cc2Cl)[C@H](F)C1 (single isomer, unassigned) [Ex-4.122, (3S,4S)(3S,4S) or (3S,4S)(3R,4R) or (3R,4R)(3S,4S) or (3R,4R)(3R,4R) 4-{6-chloro-2-[(5-chloro-1-cyclopropyl-1H-pyrazol-4-yl)amino]quinazolin-7-yl}-3-fluoropiperidin-1-yl]oxolan-3-ol] |  | >9.20
O[C@@H]1COCC1N1CC[C@@H](c2cc3nc(Nc4cnn(C5CC5)c4Cl)ncc3cc2Cl)[C@H](F)C1 (single isomer, unassigned) [Ex-4.123, (3S,4S)(3S,4S) or (3S,4S)(3R,4R) or (3R,4R)(3S,4S) or (3R,4R)(3R,4R) 4-{6-chloro-2-[(5-chloro-1-cyclopropyl-1H-pyrazol-4-yl)amino]quinazolin-7-yl}-3-fluoropiperidin-1-yl]oxolan-3-ol] |  | 8.37
O=S1(=O)CC(N2CC[C@@H](c3cc4nc(Nc5cnn(C6CC6(F)F)c5Cl)ncc4cc3Cl)[C@H](F)C2)C1 (single isomer, unassigned) [Ex-4.124, (S)(3S,4S) or (S)(3R,4R) or (R)(3S,4S) or (R)(3R,4R) 3-[4-(6-chloro-2-{[5-chloro-1-(2,2-difluorocyclopropyl)-1H-pyrazol-4-yl]amino}quinazolin-7-yl)-3-fluoropiperidin-1-yl]thietane 1,1-dioxide] |  | 8.91
O[C@@H]1COCC1N1CC[C@H](c2cc3nc(Nc4cnn(C5CC5(F)F)c4Cl)ncc3cc2Cl)[C@@H](F)C1 (single isomer, unassigned) [Ex-4.125, (R)(3S,4S)(3S,4S) or (R)(3S,4S)(3R,4R) or (R)(3R,4R)(3S,4S) or (R)(3R,4R)(3R,4R) or (S)(3S,4S)(3S,4S) or (S)(3S,4S)(3R,4R) or (S)(3R,4R)(3S,4S) or (S)(3R,4R)(3R,4R) 4-(6-chloro-2-{[5-chloro-1-(2,2-difluorocyclopropyl)-1H-pyrazol-4-yl]amino}quinazolin-7-yl)-3-fluoropiperidin-1-yl]oxolan-3-ol] |  | 8.16
Cc1c(Nc2ncc3cc(Cl)c(C4C[C@H]5C[C@@H]4CN5C4COC4)cc3n2)cnn1C1CC1 (single isomer, unassigned) [Ex-4.126, (1S,4S) or (1R,4R) 6-chloro-N-(1-cyclopropyl-5-methyl-1H-pyrazol-4-yl)-7-[2-(oxetan-3-yl)-2-azabicyclo[2.2.1]heptan-5-yl]quinazolin-2-amine] |  | 7.64
Cc1c(Nc2ncc3cc(Cl)c([C@@H]4CCN(C5COC[C@@H]5O)C[C@H]4F)cc3n2)cnn1C1CC1 (single isomer, unassigned) [Ex-4.127, (3S,4S)(3S,4S) or (3S,4S)(3R,4R) or (3R,4R)(3S,4S) or (3R,4R)(3R,4R) 4-[4-{6-chloro-2-[(1-cyclopropyl-5-methyl-1H-pyrazol-4-yl)amino]quinazolin-7-yl}-3-fluoropiperidin-1-yl]oxolan-3-ol] |  | >9.20
Cc1c(Nc2ncc3cc(Cl)c([C@@H]4CCN(C5COC[C@H]5O)C[C@H]4F)cc3n2)cnn1C1CC1 (single isomer, unassigned) [Ex-4.128, (3S,4S)(3S,4S) or (3S,4S)(3R,4R) or (3R,4R)(3S,4S) or (3R,4R)(3R,4R) 4-[4-{6-chloro-2-[(1-cyclopropyl-5-methyl-1H-pyrazol-4-yl)amino]quinazolin-7-yl}-3-fluoropiperidin-1-yl]oxolan-3-ol] |  | 8.99
Cc1c(Nc2ncc3cc(Cl)c(C4CCN(C5COC[C@H]5O)[C@@H](C)C4)cc3n2)cnn1C1CC1 (single isomer, unassigned) [Ex-4.129, (3S,4S)(2S,4R) or (3S,4S)(2S,4S) or (3R,4R)(2S,4R) or (3R,4R)(2S,4S) (3 4-[4-{6-chloro-2-[(1-cyclopropyl-5-methyl-1H-pyrazol-4-yl)amino]quinazolin-7-yl}-2-methylpiperidin-1-yl]oxolan-3-ol] |  | >9.20
Cc1c(Nc2ncc3cc(Cl)c(C4CCN(C5COC[C@@H]5O)[C@@H](C)C4)cc3n2)cnn1C1CC1 (single isomer, unassigned) [Ex-4.130, (3S,4S)(2S,4R) or (3S,4S)(2S,4S) or (3R,4R)(2S,4R) or (3R,4R)(2S,4S) (3 4-[4-{6-chloro-2-[(1-cyclopropyl-5-methyl-1H-pyrazol-4-yl)amino]quinazolin-7-yl}-2-methylpiperidin-1-yl]oxolan-3-ol] |  | 8.97
Cc1c(Nc2ncc3cc(Cl)c(C4CCN([C@@H]5COC[C@@H]5O)CC4)cc3n2)cnn1C1CC1 (single isomer, unassigned) [Ex-4.131, (3S,4S) or (3R,4R) 4-(4-{6-chloro-2-[(1-cyclopropyl-5-methyl-1H-pyrazol-4-yl)amino]quinazolin-7-yl}piperidin-1-yl)oxolan-3-ol] |  | 8.62
Cc1c(Nc2ncc3cc(Cl)c(C4CCN([C@H]5COC[C@H]5O)CC4)cc3n2)cnn1C1CC1 (single isomer, unassigned) [Ex-4.132, (3S,4S) or (3R,4R) 4-(4-{6-chloro-2-[(1-cyclopropyl-5-methyl-1H-pyrazol-4-yl)amino]quinazolin-7-yl}piperidin-1-yl)oxolan-3-ol] |  | >9.20
Cc1c(Nc2ncc3cc(Cl)c(C4CCN(C5COC5C)CC4)cc3n2)cnn1C(C)(C)C#N (single isomer, unassigned) [Ex-4.133, (2R,3R) or (2S,3S) or (2S,3R) or (2R,3S) 2-[4-({6-chloro-7-[1-(2-methyloxetan-3-yl)piperidin-4-yl]quinazolin-2-yl}amino)-5-methyl-1H-pyrazol-1-yl]-2-methylpropanenitrile] |  | 8.92
Cc1c(Nc2ncc3cc(Cl)c(C4CCN(C5COC5C)CC4)cc3n2)cnn1C(C)(C)C#N (single isomer, unassigned) [Ex-4.134, (2R,3R) or (2S,3S) or (2S,3R) or (2R,3S) 2-[4-({6-chloro-7-[1-(2-methyloxetan-3-yl)piperidin-4-yl]quinazolin-2-yl}amino)-5-methyl-1H-pyrazol-1-yl]-2-methylpropanenitrile] |  | >9.20
Cc1cc2cnc(Nc3cnn(C4CC4)c3Cl)nc2cc1[C@@H]1CCN(C2COC[C@@H]2O)C[C@H]1F (single isomer, unassigned) [Ex-4.135, (3S,4S)(3S,4S) or (3S,4S)(3R,4R) or (3R,4R)(3S,4S) or (3R,4R)(3R,4R) 4-(4-{2-[(5-chloro-1-cyclopropyl-1H-pyrazol-4-yl)amino]-6-methylquinazolin-7-yl}-3-fluoropiperidin-1-yl)oxolan-3-ol] |  | >9.20
Cc1cc2cnc(Nc3cnn(C4CC4)c3Cl)nc2cc1[C@@H]1CCN(C2COC[C@H]2O)C[C@H]1F (single isomer, unassigned) [Ex-4.136, (3S,4S)(3S,4S) or (3S,4S)(3R,4R) or (3R,4R)(3S,4S) or (3R,4R)(3R,4R) 4-(4-{2-[(5-chloro-1-cyclopropyl-1H-pyrazol-4-yl)amino]-6-methylquinazolin-7-yl}-3-fluoropiperidin-1-yl)oxolan-3-ol] |  | 8.41
